Test results published in patent US4772594A, “Prodrug compounds, process for the preparation thereof and sustained release preparation comprising the same” (Fujisawa Pharmaceutical Co., Ltd., priority 1986, dated 1988).

Assays:
[1] = Conversion Test 1: conversion half life of prodrug to parent compound in mouse serum; type: in vitro ADME; settings: 37° C.
Method: (§1) Chloroform solution containing egg yolk lecithin (84 μmole), egg yolk sphingomyelin (36 μmole) and Mitomycin C prodrug ( 6 μmole) obtained in the below-mentioned Example 1 or 2 was poured into a round-bottom flask and evaporated to dryness.
(§2) To this were added sodium cholate (258 mg) and pH 7.4 phosphate buffered saline (hereinafter referred to as PBS) (4.8 ml) and the mixture was agitated to give a clear purple solution.
(§3) Sodium cholate was removed from the solution by the Lipoprep dialyzer (detergent removal apparatus prepared by Diachema Co., Ltd.) to give a liposome suspension containing Mitomycin C prodrug.
(§4) Chloroform solution containing egg yolk lecithin (70 μmole), egg yolk sphingomyelin (30 μmole) and FR900482 substance prodrug (Example 6)(5 μmole) was poured into a round-bottom flask and a liposome suspension containing FR900482 substance prodrug was obtained in a similar manner to that of above-mentioned method. […]
(§5) After the liposome suspension and ethanol solution of each prodrug (0.5 ml) were added to mouse, rat or human serum (4.5 ml, 37° C.), samples were taken periodically and the concentration of each prodrug was determined by high-performance liquid chromotography.
(§6) Conversion half lives (t 1/2) of each prodrug to each parent compound in various kinds of serum were calculated by the concentration of each prodrug remaining at each time.

[2] = Conversion Test 1: conversion half life of prodrug to parent compound in rat serum; type: in vitro ADME; settings: rat serum, 37° C.
Method: as §1, §2, §3
Chloroform solution containing egg yolk lecithin (70 μmole), egg yolk sphingomyelin (30 μmole) and FR900482 substance prodrug (Example 6)(5 μmole) was poured into a round-bottom flask and a liposome suspension containing FR900482 substance prodrug was obtained in a similar manner to that of above-mentioned method.
Above-mentioned two liposome suspensions containing Mitomycin C prodrug were each diluted with PBS at 2.5 times.
The liposome suspension containing FR900482 substance prodrug was diluted with PBS to obtain the drug concentration of 0.5 μmole/ml and was filtered through millex-GV (trademark: prepared by Millipore Co., Ltd.) filter (0.22μ).
as §5, §6

[3] = Conversion Test 1: conversion half life of prodrug to parent compound in human serum; type: in vitro ADME; settings: 37° C.
Method: as §1, §2, §3, §4, §5, §6

[4] = in vitro; type: in vitro ADME; settings: rat, serum
Method: The mixture of chloroform and methanol (8:2 v/v) mixture containing egg yolk lecithin (70 μmole), egg yolk sphingomyelin (30 μmole) and Cytarabine prodrug (30 μmole) obtained in the below-mentioned Example 8 was poured into a round-bottom flask and evaporated to dryness. To this were added sodium cholate (53.8 mg) and PBS (5.0 ml) and the mixture was agitated to give a clear colorless solution.
Sodium cholate was removed from the solution by the Lipoprep dialyzer to give liposome suspension containing Cytarabine prodrug.
The liposome suspension was diluted with PBS to obtain the drug concentration of 5 μmole/ml and was filtered successively through polycarbonate membranes(prepared by Nuclepore Co., Ltd.) (0.2, 0.1 and 0.08μ respectively) and then filtered through a millex-GV filter (0.22 μ).
After the above-mentioned liposome suspension and ethanol solution of Cytarabine prodrug (0.08 ml) were added to rat serum (4.0 ml, 37° C.), samples were taken periodically and the concentration of Cytarabine prodrug was determined by high-performance liquid chromatography.
Conversion half lives (t 1/2) of the prodrug to the parent compound were calculated by the concentration of prodrug remaining at each time.

[5] = test system: Mouse leukemia cell L 1210; assay: Anti tumor test 1: survival of mice implanted with L 1210 leukemia; type: in vivo; settings: i.v. liposome suspension; for T/C: mean survival time vs control
Excerpt: The mixture of chloroform and methanol (8:2 V/V) containing egg yolk lecithin (245 μmole), egg yolk sphingomyelin (105 μmole) and Cytarabine prodrug (Example 8) (87.5 and 262.5 μmole respectively) was taken in a roundbottom flask. Liposome suspensions containing Cytarabine prodrug (Concentration: 10 and 20 μmole/ml respectively) were obtained in a similar manner to that of the above-mentioned method. Mouse leukemia cell L 1210 (10^5 cells) were implanted intraperitoneally into BDF female mice (7 weeks).
After 24 hours after inoculation, Cytarabine aqueous solution (dose: 1000 and 3000 μmole/kg respectively), above-mentioned liposome suspension containing Cytarabine prodrug (dose: 100 and 300 μmole/kg respectively)and aqueous solution of N^4 -behenoyl-1-β-arabinofuranosylcytosine (hereinafter referred to as BHAC) which is a known compound as Cytarabine prodrug and is shown by the following structure (dose: 100 and 300 μmole/kg respectively) were administered intravenously to the mouse at a volume of 0.2 ml or 0.3 ml (in case the administration at the dose of 300 μmole/kg of Cytarabine prodrug) per 20 g of mouse body weight. After the treatment, survival of the mice was recorded. [drawing 9]

[6] = test system: human lung adenocarcinoma A 549; assay: Anti tumor test 2: growth inhibition of A 549 under the subrenal capsule of mice; type: in vivo; settings: Day 14, i.v. liposome preparation; for Inhibition: tumor growth
Excerpt: The mixture of chloroform and methanol (3:1 V/V) containing egg yolk lecithin (245 μmole), egg yolk sphingomyelin (105 μmole) and Cyarabine prodrug (Example 8) (87.5 and 157.5 μmole respectively) was taken in a round-bottom flask. Liposome suspensions containing Cytarabine prodrug (Concentration: 10 and 18 μmole/ml respectively) were obtained in a similar manner to that of the above-mentioned method.
A fragment of human lung adenocarcinoma A 549 was implanted under the subrenal capsule of BDF female mouse (8 weeks). Cytarabine aqueous solution (dose: 1000 μmole/kg) and above-mentioned liposome suspension containing Cytarabine prodrug (dose: 100 and 180 μmole/kg respectively)were administered intravenously to the mice at a volume of 0.2 ml per mouse body weight 20 g at Day 1, 5 and 9 after implantation. The tumor volume at Day 14 after implantation was measured and the growth inhibition percent was calculated. (In this test, to clarify the anti tumor effect of each preparation, 17-allyl-1,14-dihydroxy-12-[2-(4-hydroxy-3- methoxycyclohexyl)-1-methylvinyl]-23,25-dimethoxy-13,19,21,27-tetramethyl- 11,28-dioxa-4-azatricyclo[22.3.1.0^4,9 ]octacos-18-ene-2,3,10,16-tetraone as immunosuppressive substance(dose: 32 mg/kg) was administered subcutaneously at Day 1, 2, 5, 7, 9 and 12 after implanation.)

| Molecule | Half life (t 1/2) ([1]; ethanol solution) [h] | Half life (t 1/2) ([1]; liposome suspension) [h] | Half life (t 1/2) ([2]; ethanol solution) [h] | Half life (t 1/2) ([2]; liposome suspension) [h] | Half life (t 1/2) ([3]; ethanol solution) [h] | Half life (t 1/2) ([3]; liposome suspension) [h] | Half life (t 1/2) [4] [h] | half-life ([4]; Half life (t 1/2)) [min] | Mean survival time ([5]; 100 μmole/kg) [days] | Mean survival time ([5]; 300 μmole/kg) [days] | T/C ([5]; 100 μmole/kg) [%] | T/C ([5]; 300 μmole/kg) [%] | Tumor volume mean value ± standard error ([6]; 100 μmole/kg at Day 1, 5, 9) [mm^3] | Tumor volume mean value ± standard error ([6]; 180 μmole/kg at Day 1, 5, 9) [mm^3] | Inhibition ([6]; 100 μmole/kg at Day 1, 5, 9) [%] | Inhibition ([6]; 180 μmole/kg at Day 1, 5, 9) [%] |
| --- | --- | --- | --- | --- | --- | --- | --- | --- | --- | --- | --- | --- | --- | --- | --- | --- |
| 11-[N-(cholest-5-en-3β-oxycarbonyl)glycyl]-4-formyl-6,9-dihydroxy-14- oxa-1,11-diazatetracyclo[7.4.1.0^2,7.0^10,12 ]tetradeca-2,4,6-triene-8-ylmethylcarbamate [Example 6] | 2.7 | 4.6 | 4.0 | 10.3 | 3.3 | 9.9 |  |  |  |  |  |  |  |  |  |  |
| CC(C)CCC[C@@H](C)[C@H]1CC[C@H]2[C@@H]3CC=C4C[C@@H](OC(=O)NCC(=O)Nc5ccn([C@@H]6O[C@H](CO)[C@@H](O)[C@@H]6O)c(=O)n5)CC[C@]4(C)[C@H]3CC[C@]12C [Example 8, N^4-[N-(cholest-5-en-3β-oxycarbonyl)glycyl]-1-β-D-arabinofuranosylcytosine] |  |  |  |  |  |  | 37.3 | 1360 | 16.3 ± 0.3 | 33.3 ± 13.4 | 181 | 370 | 13.0 ± 3.0 | 5.5 ± 1.6 | 54.1 | 80.4 |
